# Laboratory results: patent US10906876B2, “Tetrahydroisoquinolines as selective NADPH oxidase 2 inhibitors” (University of Pittsburgh—Of the Commonwealth System of …, priority 2013, dated 2021)
# Columns and labels:
# [1] = biological target: T1, Nox2 (Homo sapiens, UniProt P04839); assay: ROS (H2O2) generation in whole COS-Nox2 cells, Amplex Red assay; type: cell-based
# T1 construct: expressed in transfected cells
# T1 sequence (P04839 2-570 limits assumed): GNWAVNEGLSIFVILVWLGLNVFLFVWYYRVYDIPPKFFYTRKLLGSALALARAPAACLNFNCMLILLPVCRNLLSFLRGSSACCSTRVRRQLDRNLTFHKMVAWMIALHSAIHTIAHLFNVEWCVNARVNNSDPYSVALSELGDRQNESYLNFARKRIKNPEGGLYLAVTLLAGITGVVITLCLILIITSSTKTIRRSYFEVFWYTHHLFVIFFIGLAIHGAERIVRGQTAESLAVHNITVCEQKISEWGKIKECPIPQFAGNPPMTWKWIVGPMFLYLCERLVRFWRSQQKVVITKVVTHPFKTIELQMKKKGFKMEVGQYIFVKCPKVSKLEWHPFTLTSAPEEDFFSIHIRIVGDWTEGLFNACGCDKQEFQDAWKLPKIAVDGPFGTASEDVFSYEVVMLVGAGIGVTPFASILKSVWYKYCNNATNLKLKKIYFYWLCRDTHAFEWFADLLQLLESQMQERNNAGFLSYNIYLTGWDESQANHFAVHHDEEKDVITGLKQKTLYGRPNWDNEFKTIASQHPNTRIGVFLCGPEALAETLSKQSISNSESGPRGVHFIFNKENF
# Text: (§1) All cell culture reagents were obtained from Invitrogen, unless indicated. COS-22 (COS-7 cells stably expressing human p22^phox) and COS-Nox2 (a.k.a. COS-phox) cells (COS-7 cells stably expressing human p22^phox, Nox2, p47^phox and p67^phox) were kindly provided by Dr. Mary C. Dinauer (Indiana University, School of Medicine) (Price et al., Blood, 2002, 99:2653-2661). COS-22 cells were maintained in Dulbecco's Modified Eagle Medium (DMEM) with 4.5 g/L glucose, L-glutamine and sodium pyruvate containing 10% heat-inactivated fetal bovine serum (FBS), 100 units/ml penicillin and 100 μg/ml streptomycin (complete media) supplemented with 1.8 mg/ml G418 (Calbiochem/EMB Bioscience, Gibbstown, N.J.). COS-Nox2 cells were maintained in complete media supplemented with 1.8 mg/mL G418, 1 μg/mL puromycin (Sigma, St Louis, Mo.) and 0.2 mg/mL hygromycin B (Invitrogen, Carlsbad, Calif.). HEK-Nox5 cells were kindly provided by Dr. David Fulton (Georgia Health Sciences University) and maintained in complete media.
# H2O2 production was quantified in intact COS-Nox4 cells by Amplex® Red. Briefly, COS-Nox4 cells (5×10^4 cells/ml) were re-plated into 384-well plate in assay buffer (25 mM Hepes, pH 7.4, containing 0.12 M NaCl, 3 mM KCl, 1 mM MgCl2). The cells were incubated in the presence or absence of drugs at 37° C. in assay buffer supplemented with 0.1 mM Amplex® Red, and 0.32 U/ml of horse radish peroxidase (HRP) for 15 min. Fluorescence measurements were made using a Biotek Synergy 4 Hybrid Multi-Mode Microplate Reader with a 530/25-excitation and a 590/35-emission filter. The reaction was monitored at 37° C. for 1 h. A standard curve of known H2O2 concentrations was included on each plate. Nox4 activity was obtained by calculating the rate of H2O2 production as RFU/min and then subtracting the equivalent value given by non-transfected COS-22 cells. Similarly, H2O2 production by Nox2 cells was also measured by Amplex® Red as described above but in the presence of 150 U/mL of SOD and the reaction was initiated by addition of 5 μM PMA. The rate of H2O2 production in this case was calculated as RFU/min after the subtraction of the equivalent value given by non-stimulated cells. Data are expressed as % of vehicle control.
# (§2) All data are expressed as means±SEM. IC50 values were determined using the GraphPad Prism software (GraphPad Software, San Diego, Calif.) for non-linear regression three-parameters, with constrain values of 100 and 0 for top and bottom, respectively, and assumes a Hill slope of 1.
# [2] = biological target: T1, Nox2; assay: ROS (superoxide) generation in whole COS-Nox2 cells, L-012 chemiluminescence; type: cell-based; details: whole COS-Nox2 cells stimulated with 5 μM PMA
# Text: as §1
# COS-Nox2, COS-Nox1/NOXO1/NOXA1, HEK-Nox5 and COS-22 cells were re-plated in OPTIMEM into 384-well white micro-plates (Greiner-Bio One GmbH, Germany) at a density of 2.5×10^3 cells/well for COS-Nox2 and 5×10^4 cells/well for all others. The cells were incubated at 37° C. in PBS containing […] L-012 for 10 min. Reaction was initiated by addition of 5 μM PMA in the case of Nox2 or 1 μM PMA/0.1 μM Ionomycin in the case of Nox5. Since Nox1 was constitutively active, Nox1-derived O2^•− was assessed by comparison to non-transfected cells (Cos22). Luminescence was quantified over time using a Biotek Synergy 4 Hybrid Multi-Mode Microplate Reader. The specificity of L-012 for O2^•− was confirmed by the addition of SOD (150 U/mL).
# as §2
# Heterologous Nox1, 2, 4, and 5 cell systems were used as a testing paradigm to identify a probe molecule that inhibits Nox2 selectively over Nox1, 4, and 5. An acceptable probe would also show a lack of activity against XO, which also produces ROS. The latter screen would serve two purposes: (1) to eliminate drugs that inhibit an oxidase of distinct composition; and (2) to preclude agents that directly scavenge ROS. A cell-based primary assay using stable Nox2-transfected COS cells (Price et al., Blood 2002, 99:2653-2661) with L-012 chemiluminescence (Daiber et al., Free Radic. Biol. Med. 2004, 36:101-111) was used as a detection system for O2^•−-generation.
# [3] = biological target: T2, Bovine milk XO (Bos taurus, UniProt P80457); assay: Xanthine oxidase assay (Amplex Red); type: biochemical; details: compounds at 25 μM and 50 μM (FIG. 4)
# T2 construct: Bovine milk XO (grade 1, ammonium sulfate suspension; Sigma-Aldrich); purchased Sigma-Aldrich; host or cells: bovine milk
# T2 sequence (P80457 whole entry): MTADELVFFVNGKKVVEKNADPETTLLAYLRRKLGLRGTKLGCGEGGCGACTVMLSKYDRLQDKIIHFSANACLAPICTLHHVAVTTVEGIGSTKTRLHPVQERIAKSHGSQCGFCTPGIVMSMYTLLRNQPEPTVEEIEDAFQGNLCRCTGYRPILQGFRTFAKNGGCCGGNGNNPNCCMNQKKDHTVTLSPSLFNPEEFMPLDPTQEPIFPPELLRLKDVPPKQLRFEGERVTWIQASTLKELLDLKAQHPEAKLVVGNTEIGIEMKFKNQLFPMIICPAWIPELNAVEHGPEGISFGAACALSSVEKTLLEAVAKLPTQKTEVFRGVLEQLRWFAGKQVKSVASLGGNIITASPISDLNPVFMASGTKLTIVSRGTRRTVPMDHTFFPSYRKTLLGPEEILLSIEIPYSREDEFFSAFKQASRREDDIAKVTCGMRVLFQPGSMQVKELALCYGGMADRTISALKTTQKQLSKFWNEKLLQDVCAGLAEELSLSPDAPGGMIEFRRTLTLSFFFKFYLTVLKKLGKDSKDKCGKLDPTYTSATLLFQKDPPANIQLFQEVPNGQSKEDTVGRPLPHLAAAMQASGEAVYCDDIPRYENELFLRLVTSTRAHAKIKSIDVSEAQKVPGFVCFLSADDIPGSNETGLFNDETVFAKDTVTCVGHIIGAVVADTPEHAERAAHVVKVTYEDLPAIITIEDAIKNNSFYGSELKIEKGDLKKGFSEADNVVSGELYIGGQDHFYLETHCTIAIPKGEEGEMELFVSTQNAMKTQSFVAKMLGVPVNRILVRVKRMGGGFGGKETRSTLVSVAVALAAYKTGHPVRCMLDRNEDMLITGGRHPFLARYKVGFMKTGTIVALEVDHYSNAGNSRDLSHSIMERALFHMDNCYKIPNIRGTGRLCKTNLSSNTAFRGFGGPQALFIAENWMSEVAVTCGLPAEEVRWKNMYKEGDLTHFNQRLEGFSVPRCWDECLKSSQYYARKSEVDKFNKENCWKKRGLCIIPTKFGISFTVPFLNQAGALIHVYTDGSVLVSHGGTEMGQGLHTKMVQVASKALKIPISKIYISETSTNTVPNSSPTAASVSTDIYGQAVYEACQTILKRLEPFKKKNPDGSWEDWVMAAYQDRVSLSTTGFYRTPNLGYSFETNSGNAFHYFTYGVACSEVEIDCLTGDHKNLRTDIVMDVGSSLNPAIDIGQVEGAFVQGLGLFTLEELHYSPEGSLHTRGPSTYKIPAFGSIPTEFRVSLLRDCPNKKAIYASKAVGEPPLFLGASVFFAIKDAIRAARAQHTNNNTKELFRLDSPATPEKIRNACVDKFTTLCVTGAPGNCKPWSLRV
# Method: Bovine milk XO (grade 1, ammonium sulfate suspension; Sigma-Aldrich) was first desalted using PD-10 columns (Sephadex G-25, GE Healthcare Biosciences, Piscataway, N.J.) equilibrated in PBS. XO activity was assayed by measuring H2O2 production using the Amplex® Red assay. Reaction mixture contained: 0.02 U/mL XO, 25 mM Hepes, pH 7.4, containing 0.12 M NaCl, 3 mM KCl, 1 mM MgCl2, 0.1 mM Amplex® Red, and 0.32 U/mL of horse radish peroxidase (HRP), reaction was initiated by addition of 1 mM hypoxanthine. Fluorescence was quantified over time using a Biotek Synergy 4 Hybrid Multi-Mode Microplate Reader.
# Data are expressed as % of vehicle control.
SMILES,Nox2 inhibitory activity ([1]; Table 2),"IC50 ([1]; whole COS-Nox2 cells stimulated with 5 μM PMA, Amplex Red) [µM]",IC50 [2] [µM],Effect on ROS production by xanthine oxidase [3]
"C=C(C)CC1NC2CC(C)(C)C1c1c(-c3cccnc3)cccc12 (racemic) [Compound 12d, (±)-(1S,4R,9S)-3,3-Dimethyl-9-(2-methylallyl)-5-(pyridin-3-yl)-1,2,3,4-tetrahydro-1,4-(epimino-methano)naphthalene]",inactive,> 100,> 100,
"c1ccc2c(c1)[I+]c1ccccc1-2 [DPI, reference compound]",,,,complete inhibition
